Results taken from patent US20060079453A1, “Hla binding peptides and their uses” (priority 2002, published 2006).
No end group written: not given here.

Assays:
Experiment in all cases: biochemical
Format in all cases: binding
[1] = molecular target: HLA-A*0301 (Homo sapiens, UniProt P04439)
[2] = molecular target: HLA-A*3301 (Homo sapiens, UniProt P04439, A270S/D185E/E176V/E277Q/E87N/F33T/G231S/H175R/I121M/I218V/I322F/K168Q/K210R/L300P/L318F/M331R/P217A/Q86R/Q94H/R138Q/T323A/T345S/T97I/V358M/Y195H)
[3] = molecular target: HLA-A*1101 (Homo sapiens, UniProt P04439, A114D/D185E/E176A/F33Y/L180Q/S129P/T187R)
[4] = molecular target: HLA-A*6801 (Homo sapiens, UniProt P04439, A269V/D185E/E176V/E277Q/E87N/F33Y/G231S/I121M/I166T/I218V/L180W/L300P/L318F/N151K/P208A/P217A/Q86R/R169H/T345S)
[5] = molecular target: HLA-A*3101 (Homo sapiens, UniProt P04439, A270S/D185E/E176V/E277Q/F33T/G231S/G80R/H175R/I121M/I218V/I322F/K168Q/L300P/L318F/M331R/P217A/Q94H/R138Q/T323A/T345S/T97I/V358M)

Sequence | IC50 [1] [µM] | IC50 [2] [µM] | IC50 [3] [µM] | IC50 [4] [µM] | IC50 [5] [µM]
GVNHQHLPK | 0.026 | 15.6 | 0.0077 | – | –
AVDLSFFLK | 0.226 | > 27.8 | – | 4.04 | 6.21
VQLDIQSTR | 15.1 | 4.59 | 2.92 | – | –
PVVCSMEYK | – | 22.6 | 0.08 | – | 331
KMGPGPGK | 0.084 | 106 | – | 4.16 | 1.14
NLVYGETLEK | 0.846 | 0.121 | – | 0.087 | 0.761
TFVHEIELK | 4.43 | 4.13 | – | – | 8.41
LLFYSKVRR | 0.056 | 0.276 | 0.073 | 0.011 | –
LQMMNVNLQK | 0.025 | 1.11 | 0.0072 | 0.32 | –
HGAITSSNTK | 2.84 | > 22.9 | – | – | > 16.1
RFLSKISEYR | 1.64 | 0.436 | – | – | 0.033
LVYSKVRKYR | 0.32 | 0.049 | 0.619 | 0.031 | –
SIPHAACHR | – | 0.253 | – | – | 0.236
DSIPHAACHR | 2.77 | 0.0022 | 0.853 | 0.027 | –
MFQDPQERPRK | 15.5 | 0.419 | 8.57 | – | 0.604
EQRLPLLPK | 1.09 | 0.987 | 0.765 | 1.91 | –
KVLCDLLIR | 0.363 | 5.9 | – | 9.05 | 0.066
SSPLFNNFYK | 0.1 | 1.73 | 0.0007 | 0.0063 | –
RMYVGGVEH | 0.0038 | > 123 | 0.274 | > 28.8 | –
DVSHFLKEK | > 9.3 | 0.232 | – | – | > 17.8
QLARQAKQH | 8.42 | 1.66 | – | 0.243 | 0.945
GVGPGPGLK | 0.047 | > 112 | 0.004 | – | –

Sequence | IC50 [1] [µM] | IC50 [2] [µM] | IC50 [3] [µM] | IC50 [4] [µM] | IC50 [5] [µM]
QMAGPGPGFK | 0.0094 | 4.78 | 0.0062 | 0.03 | –
GTRQTRKNRK | – | 60.2 | – | 6 | 2.49
KFSEYRHYNY | 5.82 | 18.4 | – | 1.8 | –
GVIYIMIISK | 0.777 | 1.57 | – | – | 18.8
VSIRVGGQTR | – | 8.59 | 0.241 | – | 0.466
YFVYGTTLEK | 0.204 | – | 0.062 | 0.053 | 2.17
VTVKVGGQLK | 0.206 | 46.2 | 0.054 | 0.104 | –
AFTDLTIVYK | 0.701 | 9.38 | – | – | 3.95
RLLSKISEYK | 0.015 | 40 | 0.065 | – | 0.158
AQPATADYK | 3.5 | 58.9 | 0.109 | – | –
KISEYRHYNY | 0.042 | 35.3 | – | 25.1 | –
RFLSKISEYK | 0.031 | 10.2 | – | – | 0.042
AMFQDPQERPR | 1.72 | – | 0.886 | 1.48 | 0.045
VTIRIGGQLR | 3.19 | 1.35 | – | 0.016 | 0.061
RFYSKVSEFK | 0.027 | 4.45 | – | 0.547 | 0.03
ALERLLSLKK | – | 18.3 | 0.822 | – | 33.6
AVLQDIVLH | – | 25.8 | – | 27 | 6.31
FVVQLDIQSTK | 3.68 | 31.4 | 0.853 | 0.0027 | –
KTLEERVKR | 1.96 | 1.36 | – | – | 0.037
PAAYAAQGYK | 0.95 | > 111 | – | 0.666 | 20.3
CFLFYSKVRK | – | 0.315 | 0.096 | – | 0.081
RFYITTRYK | 0.0019 | 0.098 | – | 17.5 | 0.015

Sequence | IC50 [1] [µM] | IC50 [2] [µM] | IC50 [3] [µM] | IC50 [4] [µM] | IC50 [5] [µM]
SQVSNSDSYK | 1.66 | > 17.4 | 0.083 | – | 24.6
STLPEGPGPGR | – | 0.822 | – | 0.03 | 0.028
FAFKDLFVVK | 0.783 | – | 0.071 | 0.0036 | 0.525
AVGPGPGLK | 0.018 | 75.8 | 0.0036 | – | 0.128
FLFTDLRIVYR | 0.672 | 0.021 | – | 0.0014 | 0.058
EVYKFLFTDLR | 31.2 | 0.0043 | 0.602 | 0.011 | –
DFLEQTLKK | > 57.6 | – | 18.8 | 14.4 | 34.4
LVISYGRKKRR | > 11.7 | – | 8.67 | 4.66 | 0.562
KVRRRRWRAR | 0.327 | – | > 20.9 | 15.5 | 0.342
AFADLTVVYK | 2.36 | – | 0.107 | 0.05 | 1.11
TVQGPGPGEK | 0.218 | 103 | 0.0034 | – | 9.87
TTLEKLTNR | 1.99 | 0.037 | 0.817 | – | 0.042
RTLSKISEYR | 0.077 | 0.189 | 0.1 | – | 0.052
LVGPGPGK | 1 | > 126 | – | 0.598 | 23.9
AVDGPGPGK | – | > 112 | 0.019 | – | 36.8
RFHNIAGHYK | 0.025 | 0.08 | – | 0.023 | 0.0026
KFLEERVKK | 5.34 | 9.74 | 2.23 | – | 0.03
KTLGISYGRKK | 0.052 | 23.4 | – | 0.647 | 0.091
SLFGPGPGK | 0.0034 | 82.3 | 0.0023 | 0.036 | –
ATRDLCIVYR | 0.237 | 0.044 | – | 0.028 | 0.0047
KSKFGYGAK | 0.036 | > 123 | 0.596 | > 7.63 | –
QMGPGPGNFK | 0.049 | 101 | – | 0.063 | 2.68

Sequence | IC50 [1] [µM] | IC50 [2] [µM] | IC50 [3] [µM] | IC50 [4] [µM] | IC50 [5] [µM]
ILYRDCIAY | – | 44.7 | 1.83 | > 19.6 | –
SVYGTTLER | 0.028 | 0.454 | 0.0064 | 0.021 | –
AVSEIQNNK | 0.025 | 25.4 | 0.011 | 0.014 | –
EVLEESVHEIR | > 45.6 | – | > 20.2 | 0.24 | 31
FSYDLRLNK | 0.029 | – | 0.0049 | 0.015 | 0.461
KTMNNYMIK | 0.017 | – | 0.0055 | 0.029 | 0.024
KQVQMMIMIK | 0.264 | 1.23 | – | – | 4.63
RVHNIAGHYR | 0.03 | – | 0.021 | 0.018 | 0.022
AVCWRPRRK | 0.034 | 7.95 | – | – | –
RFEVYQFAFK | – | 2.87 | 0.611 | 2.44 | –
CLLFYSKVRR | – | 0.386 | 0.204 | – | 0.159
KAGPGGYPRK | 0.062 | > 17.8 | 0.043 | – | 10.7
RVLSKISEYR | 0.034 | 0.197 | 0.084 | – | 0.024
ELFDKDTFFK | 0.144 | 0.013 | – | 0.0036 | 3.68
VTGPGPGPVWK | 2.9 | > 103 | 0.024 | – | 13
QAGFFLLTR | 10.1 | – | 1.68 | 0.0053 | 0.302
AFKDLCIVYK | 0.856 | – | 0.047 | 0.378 | 0.039
VTVKIGGQLR | 19.2 | 3.83 | – | 0.052 | –
LTYRDDFPY | 8.27 | 20.2 | 0.082 | – | > 71.1
FVDLTIVYR | 29.7 | 0.43 | 5.31 | – | 2.38
SISGKYDIK | 2.09 | – | 0.05 | 1.75 | 28.2
IALLIIPPK | – | 1.4 | 0.108 | 1.96 | –
